Consider one molecule from patent US12084430B2, “Tricyclic urea compounds as JAK2 V617F inhibitors” (Incyte Corporation, priority 2022, dated 2024).

Like-named read-outs stand apart in the source and are kept apart here.

In series [1] the target is T1, catalytic domain (JH1, amino acids 826-1132) of human JAK2 (Homo sapiens, UniProt O60674).
T1 construct: catalytic domain (JH1, amino acids 826-1132) of human JAK2; FLAG (N); biotin (biotinylated); purchased Carna Biosciences 08-445-20N; host or cells: baculovirus expression system
T1 sequence (O60674 826-1132): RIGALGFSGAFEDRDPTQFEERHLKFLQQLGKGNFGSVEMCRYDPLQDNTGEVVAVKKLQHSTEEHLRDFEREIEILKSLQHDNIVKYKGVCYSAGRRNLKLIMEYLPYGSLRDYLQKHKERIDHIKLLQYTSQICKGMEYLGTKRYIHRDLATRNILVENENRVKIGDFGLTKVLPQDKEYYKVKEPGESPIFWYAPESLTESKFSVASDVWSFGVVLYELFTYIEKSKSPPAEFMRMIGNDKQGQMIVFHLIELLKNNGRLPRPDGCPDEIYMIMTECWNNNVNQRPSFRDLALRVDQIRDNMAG
The series is described as follows: JAK2 LanthaScreen JH1 binding assay. As to conditions: read-out: JH1 Bind IC50. The method, then:
Example A. JAK2 LanthaScreen […] Binding Assay
JAK2 JH1 binding assay utilizes catalytic domain (JH1, amino acids 826-1132) of human JAK2 expressed as N-terminal FLAG-tagged, biotinylated protein in a baculovirus expression system (Carna Biosciences, Product #08-445-20N). The assay was conducted in black 384-well polystyrene plates in a final reaction volume of 20 μL. JAK2 JH1 (1.5 nM) was incubated with compounds (100 nL serially diluted in DMSO) in the presence of 50 nM fluorescent JAK2-JH1 tracer and 0.5 nM Streptavidin-Tb cryptate (Cisbio Part #610SATLB) in assay buffer (50 mM Tris, pH=7.5, 10 mM MgCl2, 0.01% Brij-35, 0.1% BSA, 1 mM EGTA, 5% Glycerol and 5 mM DTT). Non-specific binding was accessed in the presence of 2 mM ATP. After incubation for 2 hours at 25° C., LanthaScreen signals were read on a PHERAstar FS plate reader (BMG LABTECH). Data was analyzed with IDBS XLfit and GraphPad Prism 5.0 software using a four parameter dose response curve to determine IC50 for each compound.
For orientation: Time-resolved FRET reads energy transfer from a long-lived donor to a nearby acceptor.

Another series deals with T2, FLT3 (Homo sapiens, UniProt P36888).
T2 sequence (P36888 27-993): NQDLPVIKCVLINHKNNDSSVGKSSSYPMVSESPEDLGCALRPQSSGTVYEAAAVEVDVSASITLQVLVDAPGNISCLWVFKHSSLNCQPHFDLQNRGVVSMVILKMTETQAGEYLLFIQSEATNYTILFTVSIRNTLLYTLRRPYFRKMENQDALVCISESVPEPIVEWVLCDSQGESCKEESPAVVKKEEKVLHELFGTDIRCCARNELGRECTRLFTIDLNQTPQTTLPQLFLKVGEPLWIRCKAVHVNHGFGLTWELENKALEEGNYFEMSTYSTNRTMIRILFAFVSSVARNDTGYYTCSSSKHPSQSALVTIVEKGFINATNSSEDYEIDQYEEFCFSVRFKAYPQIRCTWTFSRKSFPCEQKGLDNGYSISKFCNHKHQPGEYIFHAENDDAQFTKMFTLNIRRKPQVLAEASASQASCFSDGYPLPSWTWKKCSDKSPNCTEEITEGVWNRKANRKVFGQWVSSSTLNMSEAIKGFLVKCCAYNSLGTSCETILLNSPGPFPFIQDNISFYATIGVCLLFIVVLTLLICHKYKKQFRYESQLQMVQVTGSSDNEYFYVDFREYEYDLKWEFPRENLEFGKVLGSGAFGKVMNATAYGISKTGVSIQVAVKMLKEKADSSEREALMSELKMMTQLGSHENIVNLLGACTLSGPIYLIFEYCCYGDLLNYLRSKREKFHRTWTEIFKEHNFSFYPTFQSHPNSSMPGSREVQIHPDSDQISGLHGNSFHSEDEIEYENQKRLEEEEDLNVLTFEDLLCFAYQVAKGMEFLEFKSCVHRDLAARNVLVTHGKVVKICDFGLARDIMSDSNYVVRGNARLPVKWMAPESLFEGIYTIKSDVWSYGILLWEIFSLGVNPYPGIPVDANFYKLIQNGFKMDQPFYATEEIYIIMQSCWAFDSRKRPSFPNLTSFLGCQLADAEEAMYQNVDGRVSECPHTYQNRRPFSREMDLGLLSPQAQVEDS
The series can be described thus: FLT3 enzymatic assay. The class given is biochemical. As to conditions: 1 mM ATP. The gist of the method: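 Kinase reaction at room temperature in HEPES 50 mM pH 7.0 with 10 mM MgCl2, 1 mM DTT: 0.011 nM FLT3, 1 mM ATP, 500 nM biotinylated TK substrate, 0.5% DMSO. After 60 min, HTRF read as 665/620 nm ratio; IC50 from fit of percent control activity versus log concentration.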

A short description of series [2]: In vivo pharmacokinetics, rat. Set-up: species or system Sprague Dawley rats. As to conditions: male, Sprague Dawley, plasma, oral 3.0 mg/kg. As for the experimental part:
(§1) Example H. In Vivo Pharmacokinetics
(§2) Test compounds were administered to male Sprague Dawley rats or male and female Cynomolgus monkeys intravenously or via oral gavage. For intravenous (IV) dosing, test compounds were dosed at 1 mg/kg using a formulation of 10% dimethylacetamide (DMAC), 10% propylene glycol (PG) in acidified saline via IV bolus for rat or 10 min IV infusion for monkey. For oral (PO) dosing, test compounds were dosed at 3.0 mg/kg using 5% DMAC in 0.5% methylcellulose in citrate buffer (pH˜2.5). Blood samples were collected at predose and various time points up to 24 hours postdose. All blood samples were collected using EDTA as the anticoagulant and centrifuged to obtain plasma samples. The plasma concentrations of test compounds were determined by LC-MS/MS methods. The measured plasma concentrations were used to calculate PK parameters by standard noncompartmental methods using Phoenix® WinNonlin software program (version 8.0, Pharsight Corporation) or similar software. In rats and monkeys, cassette dosing of test compounds were conducted to obtain preliminary PK parameters. In vivo pharmacokinetic experiments with male beagle dogs may be performed under the conditions described above.

Series [3] can be described thus: In vivo pharmacokinetics, cynomolgus monkey. As to conditions: both sexes, plasma, oral 3.0 mg/kg, read-out: CYNO PO AUC. The arrangement: species or system Cynomolgus monkeys. The method, then:
as §1, §2

Broadly, the IC50 is the concentration needed to halve the response being measured. In general, AUC refers to concentration integrated over time. Regarding `[2H]C([2H])([2H])n1cc(-c2[nH]c3ncc4c(c3c2-c2ccc(C(C)(C)O)cc2)n([C@@H]2CC[C@@H](NC(=O)OC)C2)c(=O)n4C([2H])([2H])[2H])c(F)n1` [Example 10, Methyl ((1R,3R)-3-(7-(3-fluoro-1-(methyl-d3)-1H-pyrazol-4-yl)-8-(4-(2-hydroxypropan-2-yl)phenyl)-3-(methyl-d3)-2-oxo-3,6-dihydroimidazo[4,5-d]pyrrolo[2,3-b]pyridin-1(2H)-yl)cyclopentyl)carbamate], the IC50 was greater than 1 µM in series [1] (Table A), greater than 1 µM in series [1] (Table C) and 0.25 to 1.25 µM against FLT3. Besides, the figures for the AUC in series [2] and in series [3] were greater than 1.5 µM·h and 0.5 to 1.5 µM·h, respectively.
